Measurements taken from patent publication US10421774B2 (priority 2016, dated 2019).

How the values were obtained:
Assay in all cases: microbe, parasite or virus in culture
Assay type in all cases: cell-based, HIV-1
[1] = tested on: NLRepRlucP373S recombinant wild type (WT) virus; settings: Human immunodeficiency virus 1, MT2, read-out: WT EC50
Procedure, shortened: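 MT-2 cells infected with NLRepRlucP373S Renilla luciferase reporter virus (NL4-3, Gag P373S), inocula normalized by luciferase signal; compounds 3-fold serially diluted, 1% DMSO final. Virus yield read by Renilla luciferase after 4-5 days at 37 °C. EC50/EC90 from median effect equation; background = signal at NFV 3 μM.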

[2] = tested on: T332S/V362I/Pr R41G virus; settings: Human immunodeficiency virus 1, MT2, read-out: T332S/V362I/pr41G EC50
Procedure, shortened: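 Renilla luciferase NL4-3 reporter virus (Gag P373S background) carrying Gag T332S/V362I plus protease R41G, inoculum normalized by luciferase signal, infected MT-2 cells (10,000/well). Compounds 3-fold diluted, 1% DMSO final. After 4–5 days at 37 °C, virus yield measured as Renilla luciferase activity in a multiple-cycle assay.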

[3] = tested on: A364V site directed mutant virus; settings: Human immunodeficiency virus 1, MT2, read-out: A364V EC50
Procedure, shortened: (§1)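 Multiple-cycle assay in MT-2 cells infected with Renilla luciferase NL4-3 (Gag P373S background) carrying site-directed Gag A364V or V370A/ΔT371 changes, inocula normalized by luciferase signal. 10,000 cells/well, 3-fold compound dilutions, 1% DMSO, 4–5 days at 37°C; yield read as Renilla luciferase.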

gag V370A/ΔT371 virus = settings: Human immunodeficiency virus 1, MT2, read-out: V370A/ΔT371 EC50
Procedure, shortened: as §1

Compound: C=C(C)[C@@H]1CC[C@]2(NCCN3CCS(=O)(=O)CC3)CC[C@]3(C)[C@H](CC[C@@H]4[C@@]5(C)CC=C(C6=CCC(CCOc7ncccn7)(C(=O)O)CC6)C(C)(C)[C@@H]5CC[C@]43C)[C@@H]12 (stereo partly drawn) [Example A25, 4-((1R,3aS,5aR,5bR,7aR,11aS,11bR,13aR,13bR)-3a-((2-(1,1-dioxidothiomorpholino)ethyl)amino)-5a,5b,8,8,11a-pentamethyl-1-(prop-1-en-2-yl)-2,3,3a,4,5,5a,5b,6,7,7a,8,11,11a,11b,12,13,13a,13b-octadecahydro-1H-cyclopenta[a]chrysen-9-yl)-1-(2-(pyrimidin-2-yloxy)ethyl)cyclohex-3-ene-1-carboxylic acid]
- EC50 [1]: < 50 nM
- EC50 [2]: < 50 nM
- EC50 [3]: < 50 nM
- EC50 (gag V370A/ΔT371 virus): < 50 nM

Compound: C=C(C)[C@@H]1CC[C@]2(NCCN3CCS(=O)(=O)CC3)CC[C@]3(C)[C@H](CC[C@@H]4[C@@]5(C)CC=C(C6=CCC(CCOc7nccc(C)n7)(C(=O)O)CC6)C(C)(C)[C@@H]5CC[C@]43C)[C@@H]12 (stereo partly drawn) [Example A26, 4-((1R,3aS,5aR,5bR,7aR,11aS,11bR,13aR,13bR)-3a-((2-(1,1-dioxidothiomorpholino)ethyl)amino)-5a,5b,8,8,11a-pentamethyl-1-(prop-1-en-2-yl)-2,3,3a,4,5,5a,5b,6,7,7a,8,11,11a,11b,12,13,13a,13b-octadecahydro-1H-cyclopenta[a]chrysen-9-yl)-1-(2-((4-methylpyrimidin-2-yl)oxy)ethyl)cyclohex-3-ene-1-carboxylic acid]
- EC50 [1]: 5 nM
- EC50 [2]: > 50 nM
- EC50 [3]: > 50 nM
- EC50 (gag V370A/ΔT371 virus): > 50 nM

Compound: C=C(C)[C@@H]1CC[C@]2(NCCN3CCS(=O)(=O)CC3)CC[C@]3(C)[C@H](CC[C@@H]4[C@@]5(C)CC=C(C6=CCC(CCOc7nccc(OC)n7)(C(=O)O)CC6)C(C)(C)[C@@H]5CC[C@]43C)[C@@H]12 (stereo partly drawn) [Example A27, 4-((1R,3aS,5aR,5bR,7aR,11aS,11bR,13aR,13bR)-3a-((2-(1,1-dioxidothiomorpholino)ethyl)amino)-5a,5b,8,8,11a-pentamethyl-1-(prop-1-en-2-yl)-2,3,3a,4,5,5a,5b,6,7,7a,8,11,11a,11b,12,13,13a,13b-octadecahydro-1H-cyclopenta[a]chrysen-9-yl)-1-(2-((4-methoxypyrimidin-2-yl)oxy)ethyl)cyclohex-3-ene-1-carboxylic acid]
- EC50 [1]: 22 nM
- EC50 [2]: 3000 nM
- EC50 [3]: > 50 nM
- EC50 (gag V370A/ΔT371 virus): > 50 nM

Compound: C=C(C)[C@@H]1CC[C@]2(NCCN3CCS(=O)(=O)CC3)CC[C@]3(C)[C@H](CC[C@@H]4[C@@]5(C)CC=C(C6=CCC(CCOc7ncccc7C)(C(=O)O)CC6)C(C)(C)[C@@H]5CC[C@]43C)[C@@H]12 (stereo partly drawn) [Example A28, 4-((1R,3aS,5aR,5bR,7aR,11aS,11bR,13aR,13bR)-3a-((2-(1,1-dioxidothiomorpholino)ethyl)amino)-5a,5b,8,8,11a-pentamethyl-1-(prop-1-en-2-yl)-2,3,3a,4,5,5a,5b,6,7,7a,8,11,11a,11b,12,13,13a,13b-octadecahydro-1H-cyclopenta[a]chrysen-9-yl)-1-(2-((3-methylpyridin-2-yl)oxy)ethyl)cyclohex-3-ene-1-carboxylic acid]
- EC50 [1]: < 50 nM
- EC50 [2]: 68 nM
- EC50 [3]: > 50 nM
- EC50 (gag V370A/ΔT371 virus): 68 nM

Compound: C=C(C)[C@@H]1CC[C@]2(NCCN3CCS(=O)(=O)CC3)CC[C@]3(C)[C@H](CC[C@@H]4[C@@]5(C)CC=C(C6=CCC(CCOc7ncccc7Cl)(C(=O)O)CC6)C(C)(C)[C@@H]5CC[C@]43C)[C@@H]12 (stereo partly drawn) [Example A29, 1-(2-((3-chloropyridin-2-yl)oxy)ethyl)-4-((1R,3aS,5aR,5bR,7aR,11aS,11bR,13aR,13bR)-3a-((2-(1,1-dioxidothiomorpholino)ethyl)amino)-5a,5b,8,8,11a-pentamethyl-1-(prop-1-en-2-yl)-2,3,3a,4,5,5a,5b,6,7,7a,8,11,11a,11b,12,13,13a,13b-octadecahydro-1H-cyclopenta[a]chrysen-9-yl)cyclohex-3-ene-1-carboxylic acid]
- EC50 [1]: 5 nM
- EC50 [2]: 3 nM
- EC50 [3]: 4 nM
- EC50 (gag V370A/ΔT371 virus): 3 nM

Compound: C=C(C)[C@@H]1CC[C@]2(NCCN3CCS(=O)(=O)CC3)CC[C@]3(C)[C@H](CC[C@@H]4[C@@]5(C)CC=C(C6=CCC(CCOc7ncccc7C(F)(F)F)(C(=O)O)CC6)C(C)(C)[C@@H]5CC[C@]43C)[C@@H]12 (stereo partly drawn) [Example A30, 4-((1R,3aS,5aR,5bR,7aR,11aS,11bR,13aR,13bR)-3a-((2-(1,1-dioxidothiomorpholino)ethyl)amino)-5a,5b,8,8,11a-pentamethyl-1-(prop-1-en-2-yl)-2,3,3a,4,5,5a,5b,6,7,7a,8,11,11a,11b,12,13,13a,13b-octadecahydro-1H-cyclopenta[a]chrysen-9-yl)-1-(2-((3-(trifluoromethyl)pyridin-2-yl)oxy)ethyl)cyclohex-3-ene-1-carboxylic acid]
- EC50 [1]: 13 nM
- EC50 [2]: 223 nM
- EC50 [3]: 3000 nM
- EC50 (gag V370A/ΔT371 virus): 223 nM

Compound: C=C(C)[C@@H]1CC[C@]2(NCCN3CCS(=O)(=O)CC3)CC[C@]3(C)[C@H](CC[C@@H]4[C@@]5(C)CC=C(C6=CCC(CCOc7cnccn7)(C(=O)O)CC6)C(C)(C)[C@@H]5CC[C@]43C)[C@@H]12 (stereo partly drawn) [Example A31, 4-((1R,3aS,5aR,5bR,7aR,11aS,11bR,13aR,13bR)-3a-((2-(1,1-dioxidothiomorpholino)ethyl)amino)-5a,5b,8,8,11a-pentamethyl-1-(prop-1-en-2-yl)-2,3,3a,4,5,5a,5b,6,7,7a,8,11,11a,11b,12,13,13a,13b-octadecahydro-1H-cyclopenta[a]chrysen-9-yl)-1-(2-(pyrazin-2-yloxy)ethyl)cyclohex-3-ene-1-carboxylic acid]
- EC50 [1]: 3 nM
- EC50 [2]: > 50 nM
- EC50 [3]: 3000 nM
- EC50 (gag V370A/ΔT371 virus): > 50 nM

Compound: C=C(C)[C@@H]1CC[C@]2(NCCN3CCS(=O)(=O)CC3)CC[C@]3(C)[C@H](CC[C@@H]4[C@@]5(C)CC=C(C6=CCC(CCOc7cc(OC)ccn7)(C(=O)O)CC6)C(C)(C)[C@@H]5CC[C@]43C)[C@@H]12 (stereo partly drawn) [Example A32, 4-((1R,3aS,5aR,5bR,7aR,11aS,11bR,13aR,13bR)-3a-((2-(1,1-dioxidothiomorpholino)ethyl)amino)-5a,5b,8,8,11a-pentamethyl-1-(prop-1-en-2-yl)-2,3,3a,4,5,5a,5b,6,7,7a,8,11,11a,11b,12,13,13a,13b-octadecahydro-1H-cyclopenta[a]chrysen-9-yl)-1-(2-((4-methoxypyridin-2-yl)oxy)ethyl)cyclohex-3-ene-1-carboxylic acid]
- EC50 [1]: 6 nM
- EC50 [2]: 419 nM
- EC50 [3]: > 50 nM
- EC50 (gag V370A/ΔT371 virus): > 50 nM

Compound: C=C(C)[C@@H]1CC[C@]2(NCCN3CCS(=O)(=O)CC3)CC[C@]3(C)[C@H](CC[C@@H]4[C@@]5(C)CC=C(C6=CCC(CCOc7cc(Br)ccn7)(C(=O)O)CC6)C(C)(C)[C@@H]5CC[C@]43C)[C@@H]12 (stereo partly drawn) [Example A33, 1-(2-((4-bromopyridin-2-yl)oxy)ethyl)-4-((1R,3aS,5aR,5bR,7aR,11aS,11bR,13aR,13bR)-3a-((2-(1,1-dioxidothiomorpholino)ethyl)amino)-5a,5b,8,8,11a-pentamethyl-1-(prop-1-en-2-yl)-2,3,3a,4,5,5a,5b,6,7,7a,8,11,11a,11b,12,13,13a,13b-octadecahydro-1H-cyclopenta[a]chrysen-9-yl)cyclohex-3-ene-1-carboxylic acid]
- EC50 [1]: 6 nM
- EC50 [2]: 419 nM
- EC50 [3]: 1790 nM
- EC50 (gag V370A/ΔT371 virus): > 50 nM

Compound: C=C(C)[C@@H]1CC[C@]2(NCCN3CCS(=O)(=O)CC3)CC[C@]3(C)[C@H](CC[C@@H]4[C@@]5(C)CC=C(C6=CCC(CCOc7cc(Cl)ccn7)(C(=O)O)CC6)C(C)(C)[C@@H]5CC[C@]43C)[C@@H]12 (stereo partly drawn) [Example A34, 1-(2-((4-chloropyridin-2-yl)oxy)ethyl)-4-((1R,3aS,5aR,5bR,7aR,11aS,11bR,13aR,13bR)-3a-((2-(1,1-dioxidothiomorpholino)ethyl)amino)-5a,5b,8,8,11a-pentamethyl-1-(prop-1-en-2-yl)-2,3,3a,4,5,5a,5b,6,7,7a,8,11,11a,11b,12,13,13a,13b-octadecahydro-1H-cyclopenta[a]chrysen-9-yl)cyclohex-3-ene-1-carboxylic acid]
- EC50 [1]: 2 nM
- EC50 [2]: 96 nM
- EC50 [3]: 64 nM
- EC50 (gag V370A/ΔT371 virus): > 50 nM

Compound: C=C(C)[C@@H]1CC[C@]2(NCCN3CCS(=O)(=O)CC3)CC[C@]3(C)[C@H](CC[C@@H]4[C@@]5(C)CC=C(C6=CCC(CCOc7ccnc(Cl)c7)(C(=O)O)CC6)C(C)(C)[C@@H]5CC[C@]43C)[C@@H]12 (stereo partly drawn) [Example A35, 1-(2-((2-chloropyridin-4-yl)oxy)ethyl)-4-((1R,3aS,5aR,5bR,7aR,11aS,11bR,13aR,13bR)-3a-((2-(1,1-dioxidothiomorpholino)ethyl)amino)-5a,5b,8,8,11a-pentamethyl-1-(prop-1-en-2-yl)-2,3,3a,4,5,5a,5b,6,7,7a,8,11,11a,11b,12,13,13a,13b-octadecahydro-1H-cyclopenta[a]chrysen-9-yl)cyclohex-3-ene-1-carboxylic acid]
- EC50 [1]: < 50 nM
- EC50 [2]: > 50 nM
- EC50 [3]: 233 nM
- EC50 (gag V370A/ΔT371 virus): 3000 nM
